Among the data in patent US9006450B2 (Boehringer Ingelheim International GmbH, priority 2010, dated 2015) are IC50 values, retold here.

T1 sequence (O00763 129-2458 limits assumed): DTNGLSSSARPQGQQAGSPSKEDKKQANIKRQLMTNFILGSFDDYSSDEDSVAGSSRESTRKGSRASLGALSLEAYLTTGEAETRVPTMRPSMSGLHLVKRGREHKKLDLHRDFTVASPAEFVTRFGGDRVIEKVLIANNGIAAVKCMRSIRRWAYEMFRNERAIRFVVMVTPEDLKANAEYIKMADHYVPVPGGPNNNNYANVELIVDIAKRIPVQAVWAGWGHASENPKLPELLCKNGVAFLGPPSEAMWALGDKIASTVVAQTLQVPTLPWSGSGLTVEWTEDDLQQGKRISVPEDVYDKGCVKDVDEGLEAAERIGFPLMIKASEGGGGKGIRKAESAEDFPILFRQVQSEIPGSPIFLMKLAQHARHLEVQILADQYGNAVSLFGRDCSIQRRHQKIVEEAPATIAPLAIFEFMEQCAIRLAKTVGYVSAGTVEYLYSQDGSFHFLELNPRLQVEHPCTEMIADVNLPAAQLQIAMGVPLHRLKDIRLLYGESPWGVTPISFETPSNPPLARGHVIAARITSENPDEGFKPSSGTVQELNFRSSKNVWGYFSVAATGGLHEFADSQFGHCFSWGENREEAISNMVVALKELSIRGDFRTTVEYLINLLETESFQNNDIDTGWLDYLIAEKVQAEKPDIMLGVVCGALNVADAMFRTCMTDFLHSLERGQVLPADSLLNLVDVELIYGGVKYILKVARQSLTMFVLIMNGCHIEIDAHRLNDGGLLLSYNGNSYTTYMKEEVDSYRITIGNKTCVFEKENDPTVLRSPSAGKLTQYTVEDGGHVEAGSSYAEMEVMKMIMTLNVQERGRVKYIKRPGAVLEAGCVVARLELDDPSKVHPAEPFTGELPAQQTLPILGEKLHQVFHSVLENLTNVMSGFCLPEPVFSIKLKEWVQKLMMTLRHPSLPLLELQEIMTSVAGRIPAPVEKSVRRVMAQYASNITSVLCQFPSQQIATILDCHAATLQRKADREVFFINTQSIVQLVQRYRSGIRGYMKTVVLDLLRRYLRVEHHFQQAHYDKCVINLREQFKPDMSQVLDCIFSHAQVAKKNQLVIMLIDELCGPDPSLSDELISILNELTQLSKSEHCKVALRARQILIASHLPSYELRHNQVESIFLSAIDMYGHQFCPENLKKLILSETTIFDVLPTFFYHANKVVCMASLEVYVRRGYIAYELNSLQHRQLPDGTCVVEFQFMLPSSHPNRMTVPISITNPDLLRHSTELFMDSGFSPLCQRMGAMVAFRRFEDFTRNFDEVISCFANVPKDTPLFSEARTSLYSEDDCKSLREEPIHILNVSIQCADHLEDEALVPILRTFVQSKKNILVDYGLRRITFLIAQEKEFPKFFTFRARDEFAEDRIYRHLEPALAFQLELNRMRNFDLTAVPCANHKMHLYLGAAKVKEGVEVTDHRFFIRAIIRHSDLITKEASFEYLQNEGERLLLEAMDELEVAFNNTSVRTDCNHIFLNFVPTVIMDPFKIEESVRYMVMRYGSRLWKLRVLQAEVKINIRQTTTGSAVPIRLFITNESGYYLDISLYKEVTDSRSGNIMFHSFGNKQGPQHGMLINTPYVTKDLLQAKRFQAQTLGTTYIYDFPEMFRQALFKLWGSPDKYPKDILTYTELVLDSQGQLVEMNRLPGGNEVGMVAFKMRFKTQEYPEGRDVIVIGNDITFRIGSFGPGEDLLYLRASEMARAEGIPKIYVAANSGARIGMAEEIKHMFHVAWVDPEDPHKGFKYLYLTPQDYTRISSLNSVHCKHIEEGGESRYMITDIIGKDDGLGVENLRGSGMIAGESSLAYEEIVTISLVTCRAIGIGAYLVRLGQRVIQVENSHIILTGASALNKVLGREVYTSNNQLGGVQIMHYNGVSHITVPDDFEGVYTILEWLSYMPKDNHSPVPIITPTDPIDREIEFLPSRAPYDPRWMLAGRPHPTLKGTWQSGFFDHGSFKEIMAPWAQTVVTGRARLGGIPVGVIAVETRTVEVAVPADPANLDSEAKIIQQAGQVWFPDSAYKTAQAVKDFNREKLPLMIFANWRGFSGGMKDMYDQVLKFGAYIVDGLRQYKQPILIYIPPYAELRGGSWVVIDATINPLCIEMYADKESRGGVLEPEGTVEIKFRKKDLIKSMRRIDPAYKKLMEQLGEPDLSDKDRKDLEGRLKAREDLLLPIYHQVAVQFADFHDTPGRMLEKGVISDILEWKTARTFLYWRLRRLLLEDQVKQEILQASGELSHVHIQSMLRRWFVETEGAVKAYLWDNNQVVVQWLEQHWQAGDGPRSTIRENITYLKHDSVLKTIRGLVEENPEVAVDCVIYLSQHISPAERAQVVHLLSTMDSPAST

This assay addresses T1, human ACC2 (Homo sapiens, UniProt O00763).
T1 construct: made in house; host or cells: insect cells (baculoviral expression system)
In words: ACC2 assay, spectrophotometric 384 well assay (NADH-linked, coupled lactate dehydrogenase/pyruvate kinase). It is filed as biochemical. The settings on record: ACC2 assay, hACC2 construct lacking 128 N-terminal amino acids, 25° C., 340 nm; read-out: IC50. An outline of the steps:
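Human ACC2 lacking N-terminal 128 aa, baculovirus/insect-cell expressed, anion-exchange purified; 100 mM Tris pH 7.5, 10 mM citrate, 25 mM KHCO3, 1% DMSO. Started with 200 μM NADH and acetyl-CoA plus 500 μM ATP; PK/LDH-coupled A340 decrease read 15 min at 25° C. IC50 by nonlinear fit of low-control-subtracted slopes.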
For the compound `CC(=O)N[C@@H](C)c1ccc(C2CCN(c3ncc(-c4ccc(C#N)c(F)c4)cn3)CC2)cc1` [Example 10.1, (S)—N-[1-(4-{1-[5-(4-Cyano-3-fluorophenyl)-pyrimidin-2-yl]-piperidin-4-yl}-phenyl)ethyl]-acetamide], the IC50 was found to be 50 nM. The result for `CC(=O)N[C@@H](C)c1ccc(C2CCN(c3ccnc(OCCc4ccccc4)c3)CC2)cc1` [Example 19.9] reads 1300 nM; that for `CC(=O)N[C@@H](C)c1ccc(C2CCN(c3ccc(OCCOC4CC4)cc3)CC2)cc1` [Example 9.31], 4800 nM; that for `CC(=O)N[C@@H](C)c1ccc(C2CCN(c3ccc(O[C@@H]4CCOC4)cc3F)CC2)cc1` [Example 1.63], 1300 nM.

`COc1cccc(NC(=O)c2cnc(N3CCC(c4ccc([C@H](C)NC(C)=O)cc4)CC3)nc2)c1` [Example 18.12]: the IC50 turned out to be 420 nM. In the case of `CC(=O)N[C@@H](C)c1ccc(C2CCN(c3ccc(OC4CCCCC4)nc3)CC2)cc1` [Example 1.172] it was 250 nM; in that of `CC(=O)N[C@@H](C)c1ccc(C2CCN(c3ccnc(OC(C)C)c3)CC2)cc1` [Example 3.3], 110 nM; in that of `CC(=O)N[C@@H](C)c1ccc(C2CCN(c3ccc(OCC4CCC4)cc3)CC2)cc1` [Example 9.29], 60 nM. As to `CC(=O)N[C@@H](C)c1ccc(C2CCN(c3cnccc3C)CC2)cc1` [Example 15.10], the IC50 was 3200 nM. For the compound `CC(=O)N[C@@H](C)c1ccc(C2CCN(c3ncccc3C)CC2)cc1` [Example 5.49], the IC50 was 2600 nM. In the case of `CC(=O)N[C@@H](C)c1ccc(C2CCN(c3ncc(C(=O)NCCn4ccnc4)cn3)CC2)cc1` [Example 18.73] it was 17900 nM; in that of `CC(=O)N[C@@H](C)c1ccc(C2CCN(c3ncnc4ccsc34)CC2)cc1` [Example 4.24], 2100 nM. In the case of `CC(=O)N[C@@H](C)c1ccc(C2CCN(c3ccnc(N(C)C4CCCC4)n3)CC2)cc1` [Example 11.96] it was 350 nM. For the compound `CC(=O)N[C@@H](C)c1ccc(C2CCN(c3ccnc(OC4CCOCC4)c3)CC2)cc1` [Example 19.17], the IC50 was 330 nM.

On to `CCCOc1ccc(N2CCC(c3ccc([C@H](C)NC(=O)N(C)C)cc3)CC2)c(OC)c1` [Example 1.124], for which the IC50 was 180 nM. In the case of `CCC(=O)N[C@@H](C)c1ccc(C2CCN(c3ccnc(Oc4ccccc4)c3)CC2)cc1` [Example 1.153] it was 520 nM; in that of `CC(=O)N[C@@H](C)c1ccc(C2CCN(c3cccc(C(F)(F)F)n3)CC2)cc1` [Example 4.19], 100 nM; in that of `CC(=O)N[C@@H](C)c1ccc(C2CCN(c3ncc(-c4ccc5occc5c4)cn3)CC2)cc1` [Example 10.88], 30 nM. The result for `CC(=O)N[C@@H](C)c1ccc(C2CCN(c3ccnc(OCc4ccccc4)n3)CC2)cc1` [Example 11.23] reads 1500 nM; that for `CC(=O)N[C@@H](C)c1ccc(C2CCN(c3ncc(-c4cnc(C#N)nc4)cn3)CC2)cc1` [Example 10.83], 1900 nM; that for `COC(=O)Cc1ccc(N2CCC(c3ccc([C@H](C)NC(C)=O)cc3)CC2)cc1` [Example 15.1, (S)-(4-{4-[4-(1-Acetylamino-ethyl)-phenyl]-piperidin-1-yl}-phenyl)-acetic acid methyl ester], 2800 nM. Regarding `CCCOc1ccc(N2CCC(c3ccc([C@H](C)NC(=O)OC)cc3)CC2)cc1` [Example 1.13], the IC50 stood at 100 nM. The result for `CCOc1ccc(N2CCC(c3ccc([C@H](C)NC(=O)CC)cc3)CC2)c(C#N)c1` [Example 1.154] reads 300 nM.

Turning to `COc1ccc(N2CCC(c3ccc([C@H](C)NC(C)=O)cc3)CC2)c(F)c1` [Example 1.96], the IC50 was 360 nM. As to `CCOc1ccc(N2CCC(c3ccc([C@H](C)NC(=O)c4cn[nH]c4)cc3)CC2)cc1` [Example 6.10], the IC50 amounted to 250 nM.

For `CC(=O)N[C@@H](C)c1ccc(C2CCN(c3ccc(OC4CC4)cc3F)CC2)cc1` [Example 1.189], the IC50 came out at 60 nM. The result for `CC(=O)N[C@@H](C)c1ccc(C2CCN(c3ccc4c(c3)OCCCO4)CC2)cc1` [Example 1.44] reads 180 nM; that for `C[C@H](NC(=O)C1CC1)c1ccc(C2CCN(c3ncnc(N(C)CC4CC4)c3F)CC2)cc1` [Example 11.128], 410 nM; that for `COc1ccc(COc2cc(N3CCC(c4ccc([C@H](C)NC(C)=O)cc4)CC3)ccn2)cc1` [Example 19.35], 27400 nM. Consider `CCOc1ccc(N2CCC(c3ccc([C@H](C)NC(=O)c4ncn[nH]4)cc3)CC2)cc1` [Example 6.41], for which the IC50 was determined as 4100 nM. In the case of `CC(=O)N[C@@H](C)c1ccc(C2CCN(c3ccc(C4CC4)nn3)CC2)cc1` [Example 1.174] it was 7500 nM.

Consider `CC(=O)N[C@@H](C)c1ccc(C2CCN(c3ncc(C(F)(F)F)cc3Cl)CC2)cc1` [Example 5.16], for which the IC50 amounted to 260 nM. The result for `COc1ccc(-c2cnc(N3CCC(c4ccc([C@H](C)NC(C)=O)cc4)CC3)nc2)cc1OC` [Example 10.35] reads 1100 nM. In the case of `COc1ccccc1-c1cnc(N2CCC(c3ccc([C@H](C)NC(C)=O)cc3)CC2)nc1` [Example 10.4] it was 2000 nM; in that of `C[C@H](NC(=O)C1CC1)c1ccc(C2CCN(c3ncc4nc(-c5ccccc5)oc4n3)CC2)cc1` [Example 4.46], 210 nM; in that of `CC(=O)N[C@@H](C)c1ccc(C2CCN(c3ccc(OCC4CCO4)c(F)c3)CC2)cc1` (stereo partly drawn) [Example 8.48], 1600 nM. In the case of `CC(=O)N[C@@H](C)c1ccc(C2CCN(c3ccc4cc(Cl)ccc4n3)CC2)cc1` [Example 4.10] it was 670 nM. Regarding `CSc1ccc(-c2cnc(N3CCC(c4ccc([C@H](C)NC(C)=O)cc4)CC3)nc2)c(C(F)(F)F)c1` [Example 10.77], the IC50 is 1600 nM.

`CC(=O)N[C@@H](C)c1ccc(C2CCN(c3ccnc(O[C@H]4CCOC4)c3)CC2)cc1` [Example 19.16]: the IC50 amounted to 270 nM. `CC(=O)N[C@@H](C)c1ccc(C2CCN(c3ncc(C4=CCOCC4)cn3)CC2)cc1` [Example 10.84]: the IC50 turned out to be 1300 nM. In the case of `CC(=O)N[C@@H](C)c1ccc(C2CCN(c3ccnc(OC4Cc5ccccc5C4)c3)CC2)cc1` [Example 19.30] it was 540 nM; in that of `COc1cc(OC(C)C)ccc1N1CCC(c2ccc([C@H](C)NC(C)=O)cc2)CC1` [Example 1.35], 320 nM; in that of `CCCOc1cnc(N2CCC(c3ccc([C@H](C)NC(=O)C4CC4)cc3)CC2)nc1` [Example 4.305], 1400 nM. For the compound `COC1CN(C(=O)c2cnc(N3CCC(c4ccc([C@H](C)NC(C)=O)cc4)CC3)nc2)C1` [Example 18.23], the IC50 stood at 3100 nM. As to `C=CCCOc1ccc(N2CCC(c3ccc([C@H](C)NC(C)=O)cc3)CC2)cc1` [Example 9.27], the IC50 was 70 nM. As for `CC(=O)N[C@@H](C)c1ccc(C2CCN(c3ncc(C(=O)NCCCO)cn3)CC2)cc1` [Example 18.47], the IC50 is 29100 nM.

Turning to `CC(=O)N[C@@H](C)c1ccc(C2CCN(c3ncc(C(=O)NCc4ncccn4)cn3)CC2)cc1` [Example 18.34], the IC50 turned out to be 3500 nM. In the case of `CC(=O)N[C@@H](C)c1ccc(C2CCN(c3ncc(C(=O)NCCC(N)=O)cn3)CC2)cc1` [Example 18.82] it was 6200 nM; in that of `CC(=O)N[C@@H](C)c1ccc(C2CCN(c3cccc(OC4CCOCC4)c3)CC2)cc1` [Example 7.2], 190 nM; in that of `CCOc1ccc(N2CCC(c3ccc([C@H](C)NC(=O)c4cnon4)cc3)CC2)cc1` [Example 6.36], 9100 nM. In the case of `CC(=O)N[C@@H](C)c1ccc(C2CCN(c3ncc(C(=O)N4CCCC4)cn3)CC2)cc1` [Example 18.54] it was 2100 nM; in that of `CC(=O)N[C@@H](C)c1ccc(C2CCN(c3cc(O)ncn3)CC2)cc1` [Example 11.116], 14500 nM; in that of `CCOc1ccc(N2CCC(c3ccc([C@H](C)NC(=O)c4ccc[nH]4)cc3)CC2)cc1` [Example 6.22], 670 nM. The result for `CC(=O)N[C@@H](C)c1ccc(C2CCN(c3ccc(C(C)(F)F)cn3)CC2)cc1` [Example 5.34] reads 3200 nM. `Cc1ccc(-c2cnc(N3CCC(c4ccc([C@H](C)NC(=O)N(C)C)cc4)CC3)nc2)cc1` [Example 10.112]: the IC50 came out at 120 nM.

As to `CC(=O)N[C@@H](C)c1ccc(C2CCN(c3ccc(OCC4CC4)nc3C#N)CC2)cc1` [Example 1.183], the half-maximal inhibitory concentration (IC50) was 150 nM. In the case of `CCOc1ccc(N2CCC(c3ccc([C@H](C)NC(=O)C4CCC4)cc3)CC2)cc1` [Example 6.7] it was 770 nM. Take `CC(=O)N[C@@H](C)c1ccc(C2CCN(c3cc(N4CCCCC4)ncn3)CC2)cc1` [Example 11.57]: the IC50 stood at 420 nM. In the case of `C[C@H](NC(=O)N(C)C)c1ccc(C2CCN(c3ccc(OCC4CCC4)cc3)CC2)cc1` [Example 1.142] it was 60 nM; in that of `CNC(=O)c1csc(N2CCC(c3ccc([C@H](C)NC(C)=O)cc3)CC2)n1` [Example 5.9], 25400 nM; in that of `CC(=O)N[C@@H](C)c1ccc(C2CCN(c3ncc(-c4cccc(C)c4)cn3)CC2)cc1` [Example 10.7], 40 nM. Take `CC(=O)N[C@@H](C)c1ccc(C2CCN(c3ncc4nc(-c5ccsc5)oc4n3)CC2)cc1` [Example 5.5]: the IC50 turned out to be 20 nM. The result for `CC(=O)N[C@@H](C)c1ccc(C2CCN(c3ccnc(N4Cc5ccccc5C4)n3)CC2)cc1` [Example 11.88] reads 1600 nM; that for `CCC(C)Oc1ccc(N2CCC(c3ccc([C@H](C)NC(C)=O)cc3)CC2)cc1C` (stereo partly drawn) [Example 8.51], 760 nM. The result for `CC(=O)N[C@@H](C)c1ccc(C2CCN(c3ncc(-c4cc(C)ccn4)cn3)CC2)cc1` [Example 10.122] reads 150 nM; that for `CC(=O)N[C@@H](C)c1ccc(C2CCN(c3ncc(Br)cn3)CC2)cc1` [Example 4.44], 650 nM.
